Assay results from PMC5150661 (Journal of Medicinal Chemistry, 2016).
Where two headings read alike, the source gives them in different places. Marks after values point to notes of the source that are not given here.

Experiments:
[1] = format: in vitro ADME; conditions: liver microsomes
[2] = target: T1, wild-type androgen receptor (AR) in LAPC4 cell line (Homo sapiens, UniProt P10275); format: cell-based
T1 sequence (P10275 1-920): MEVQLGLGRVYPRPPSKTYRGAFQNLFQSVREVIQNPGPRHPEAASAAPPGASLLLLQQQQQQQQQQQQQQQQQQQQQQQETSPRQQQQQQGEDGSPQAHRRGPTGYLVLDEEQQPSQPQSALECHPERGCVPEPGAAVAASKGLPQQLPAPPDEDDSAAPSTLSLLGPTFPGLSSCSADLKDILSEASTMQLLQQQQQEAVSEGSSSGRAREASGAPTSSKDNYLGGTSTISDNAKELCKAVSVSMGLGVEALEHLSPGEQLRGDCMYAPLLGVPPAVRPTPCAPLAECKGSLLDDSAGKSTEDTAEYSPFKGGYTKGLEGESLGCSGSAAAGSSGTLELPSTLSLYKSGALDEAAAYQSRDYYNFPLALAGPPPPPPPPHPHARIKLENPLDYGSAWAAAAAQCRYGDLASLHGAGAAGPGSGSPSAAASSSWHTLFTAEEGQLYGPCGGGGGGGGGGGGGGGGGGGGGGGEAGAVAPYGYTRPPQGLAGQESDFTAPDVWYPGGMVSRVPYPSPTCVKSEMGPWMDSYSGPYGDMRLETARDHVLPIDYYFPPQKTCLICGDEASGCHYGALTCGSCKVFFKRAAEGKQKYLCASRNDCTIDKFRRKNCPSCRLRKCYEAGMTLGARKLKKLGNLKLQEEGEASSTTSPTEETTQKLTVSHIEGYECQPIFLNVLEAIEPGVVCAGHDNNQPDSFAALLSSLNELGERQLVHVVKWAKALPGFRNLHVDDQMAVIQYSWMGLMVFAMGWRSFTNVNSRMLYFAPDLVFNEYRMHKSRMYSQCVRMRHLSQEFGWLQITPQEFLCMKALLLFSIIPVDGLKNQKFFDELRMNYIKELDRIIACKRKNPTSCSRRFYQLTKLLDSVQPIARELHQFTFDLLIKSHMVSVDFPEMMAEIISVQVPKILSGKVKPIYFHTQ

[3] = test system: S. mansoni; test: S. mansoni in vivo study, worm burden reduction in infected NMRI mice; set-up: species or system Schistosoma mansoni in NMRI mice
[4] = physchem; format: physicochemical; conditions: pH 7.4
[5] = in vitro; conditions: human, microsomes
[6] = in vitro; conditions: mouse, microsomes
[7] = Mouse exposure study after oral administration; format: in vivo, male Swiss outbred mice; conditions: after oral administration of 100 mg/kg of 1
[8] = test system: S. mansoni; conditions: cited from earlier work
[9] = test system: S. mansoni; conditions: 1 × 100 mg/kg po; ref Keiser et al. 21; cited from earlier work
[10] = 0.01 M HCl (approximately pH 2.0), 1% DMSO, nephelometry
[11] = pH 6.5 phosphate buffer, 1% DMSO, nephelometry

| metabolic stability (in words) [1] | Sol2.0 [10] | Sol6.5 [11] | SMILES | also measured |
| --- | --- | --- | --- | --- |
| intermediate | 50–100/50–100 μg/mL | 50–100/50–100 μg/mL | CN1C(=O)N(c2ccc(F)c(C(F)(F)F)c2)C(=O)C1(C)C [Compd 2, 3-[4-Fluoro-3-(trifluoromethyl)phenyl]-1,5,5-trimethylimidazolidine-2,4-dione] | metabolic reactions observed [1]: N-dealkylation metabolic reactions to form 1 |
| intermediate | 50 to 100 µg/mL | 25 to 50 µg/mL | CCN1C(=O)N(c2ccc(F)c(C(F)(F)F)c2)C(=O)C1(C)C [Compd 3, 1-Ethyl-3-[4-fluoro-3-(trifluoromethyl)phenyl]-5,5-dimethylimidazolidine-2,4-dione] | metabolic reactions observed [1]: N-dealkylation metabolic reactions to form 1 |
|  | 25–50/25–50 μg/mL | 25–50/25–50 μg/mL | CC1(C)C(=O)N(c2ccc(F)c(C(F)(F)F)c2)C(=O)N1CC#N [Compd 5, 2-[3-[4-Fluoro-3-(trifluoromethyl)phenyl]-5,5-dimethyl-2,4-dioxoimidazolidin-1-yl]acetonitrile] |  |
| unstable | 12.5 to 25 µg/mL | 25 to 50 µg/mL | CC1(C)C(=O)N(c2ccc(F)c(C(F)(F)F)c2)C(=O)N1CCc1ccccc1 [Compd 6, 3-[4-Fluoro-3-(trifluoromethyl)phenyl]-5,5-dimethyl-1-phenethylimidazolidine-2,4-dione] |  |
| highly stable | 1.6–3.1/1.6–3.1 μg/mL | 1.6–3.1/1.6–3.1 μg/mL | CC1(C)C(=O)N(c2ccc(F)c(C(F)(F)F)c2)C(=O)N1S(C)(=O)=O [Compd 7, 3-[4-Fluoro-3-(trifluoromethyl)phenyl]-5,5-dimethyl-1-(methylsulfonyl)imidazolidine-2,4-dione] |  |
| unstable | <1.6/<1.6 μg/mL | <1.6/<1.6 μg/mL | CC1(C)C(=O)N(c2ccc(F)c(C(F)(F)F)c2)C(=O)N1S(=O)(=O)c1ccccc1 [Compd 8, 3-[4-Fluoro-3-(trifluoromethyl)phenyl]-5,5-dimethyl-1-(phenylsulfonyl)imidazolidine-2,4-dione] |  |
|  |  |  | CC1(C)NC(=O)N(c2ccnc(C(F)(F)F)c2)C1=O [Compd 16, 5,5-Dimethyl-3-[2-(trifluoromethyl)pyridin-4-yl]imidazolidine-2,4-dione] | cure of infected mice ([3]; 100 mg/kg): cure of all of the infected mice |
| high metabolic stabilities | >100/>100 μg/mL | >100/>100 μg/mL | O=C1CNC(=O)N1c1ccc(F)c(C(F)(F)F)c1 [Compd 22] |  |
| high metabolic stabilities | 25–50/25–50 μg/mL | 25–50/25–50 μg/mL | CC1(CO)NC(=O)N(c2ccc(F)c(C(F)(F)F)c2)C1=O (stereo not drawn) [Compd 25, 3-[4-Fluoro-3-(trifluoromethyl)phenyl]-5-(hydroxymethyl)-5-methylimidazolidine-2,4-dione] | exposure of metabolite relative to 1, based on AUC0–24h [7]: approximately 3% |
| decreased the metabolic stabilities | 50–100/50–100 μg/mL | 50–100/50–100 μg/mL | O=C1NC2(CCCC2)C(=O)N1c1ccc(F)c(C(F)(F)F)c1 [Compd 26, 3-[4-Fluoro-3-(trifluoromethyl)phenyl]-1,3-diazaspiro[4.4]nonane-2,4-dione] |  |
| decreased the metabolic stabilities | 3.1–6.3/3.1–6.3 μg/mL | 3.1–6.3/3.1–6.3 μg/mL | O=C1NC2(CCCCC2)C(=O)N1c1ccc(F)c(C(F)(F)F)c1 [Compd 27, 3-[4-Fluoro-3-(trifluoromethyl)phenyl]-1,3-diazaspiro[4.5]decane-2,4-dione] |  |
| decreased the metabolic stabilities | 25–50/25–50 μg/mL | 25–50/25–50 μg/mL | O=C1C2CCCN2C(=O)N1c1ccc(F)c(C(F)(F)F)c1 (stereo not drawn) [Compd 28, 2-[4-Fluoro-3-(trifluoromethyl)phenyl]tetrahydro-1H-pyrrolo[1,2-c]imidazole-1,3(2H)-dione] |  |
|  | 12.5–25/12.5–25 μg/mL | 12.5–25/12.5–25 μg/mL | CC1(C)CC(=O)N(c2ccc(F)c(C(F)(F)F)c2)C1=O [Compd 29, 1-[4-Fluoro-3-(trifluoromethyl)phenyl]-3,3-dimethylpyrrolidine-2,5-dione] |  |
|  | 3.1–6.3/3.1–6.3 μg/mL | 3.1–6.3/3.1–6.3 μg/mL | CC1(C)OC(=O)N(c2ccc(F)c(C(F)(F)F)c2)C1=O [Compd 30, 3-[4-Fluoro-3-(trifluoromethyl)phenyl]-5,5-dimethyloxazolidine-2,4-dione] |  |
|  | 25 to 50 µg/mL |  | CC1(C)NC(=O)C(c2ccc(F)c(C(F)(F)F)c2)C1=O (stereo not drawn) [Compd 31, 3-[4-Fluoro-3-(trifluoromethyl)phenyl]-5,5-dimethylpyrrolidine-2,4-dione] |  |
|  | 12.5–25/12.5–25 μg/mL | 12.5–25/12.5–25 μg/mL | CC1(C)CN(c2ccc(F)c(C(F)(F)F)c2)C(=O)N1 [Compd 32, 1-[4-Fluoro-3-(trifluoromethyl)phenyl]-4,4-dimethylimidazolidin-2-one] |  |
|  | 25–50/25–50 μg/mL | 25–50/25–50 μg/mL | CC1(C)C(=O)NC(=O)N1c1ccc(F)c(C(F)(F)F)c1 [Compd 33, 1-[4-Fluoro-3-(trifluoromethyl)phenyl]-5,5-dimethylimidazolidine-2,4-dione] |  |
|  | 25–50/25–50 μg/mL | 25–50/25–50 μg/mL | CC1(C)CC(=O)N(c2ccc(F)c(C(F)(F)F)c2)C(=O)N1 [Compd 34, 3-[4-Fluoro-3-(trifluoromethyl)phenyl]-6,6-dimethyldihydropyrimidine-2,4(1H,3H)-dione] |  |
|  | 12.5–25/12.5–25 μg/mL | 12.5–25/12.5–25 μg/mL | CC1(C)CNC(=O)N(c2ccc(F)c(C(F)(F)F)c2)C1=O [Compd 35, 3-[4-Fluoro-3-(trifluoromethyl)phenyl]-5,5-dimethyldihydropyrimidine-2,4(1H,3H)-dione] |  |
|  | 25 to 50 µg/mL |  | CC(C)(NC(=O)Nc1ccc(F)c(C(F)(F)F)c1)C(=O)O [Compd 36, 2-[3-[4-Fluoro-3-(trifluoromethyl)phenyl]ureido]-2-methylpropanoic acid] | exposure of metabolite relative to 1, based on AUC0–24h [7]: < 1% |
|  |  |  | CC1(C)NC(=O)N(c2ccc([N+](=O)[O-])c(C(F)(F)F)c2)C1=O [N, nilutamide] | antischistosomal activity in S. mansoni-infected mice [8]: weak, but measurable |
|  |  |  | O=C(C1CCCCC1)N1CC(=O)N2CCc3ccccc3C2C1 (stereo not drawn) [PZ, Praziquantel] | Sol2.0 (pH 2): >100/>100 μg/mL; Sol6.5 (pH 6.5): >100/>100 μg/mL; S. mansoni WBR [9]: 18 ^i %; ED50 against adult S. mansoni ([8]; mouse model): 172 to 202 mg/kg; activity against juvenile stages of the parasite ([8]; mouse model): no significant activity |

| SMILES | metabolic stability (in words) [1] | Sol2.0 [10] | Sol6.5 [11] | also measured |
| --- | --- | --- | --- | --- |
| CC1(C)C(=O)N(c2ccc(F)c(C(F)(F)F)c2)C(=O)N1CC(N)=O [Compd 4, 2-[3-[4-Fluoro-3-(trifluoromethyl)phenyl]-5,5-dimethyl-2,4-dioxoimidazolidin-1-yl]acetamide] |  | 50–100/50–100 μg/mL | 50–100/50–100 μg/mL | LAPC4 IC50 ([2]; DHT-induced luciferase reporter, 24 h): agonist; AR functional activity (in words) ([2]; LAPC4 reporter): weak AR agonist |
| O=C1N[C@H](c2ccccc2)C(=O)N1c1ccc(F)c(C(F)(F)F)c1 [Compd 24, (R)-3-[4-Fluoro-3-(trifluoromethyl)phenyl]-5-phenylimidazolidine-2,4-dione] | decreased the metabolic stabilities | 6.3–12.5/6.3–12.5 μg/mL | 6.3–12.5/6.3–12.5 μg/mL | chromatographic logD [4]: 3.5; IC50 [2]: 5.3 µM; inhibition in vivo at 100 mg/kg ([3]; Schistosoma mansoni, in Mus musculus, po, 504 h, read-out: S. mansoni WBR): 41%; microsomal CLint [5]: 22 µL/min/mg; microsomal CLint [6]: 181 µL/min/mg |
